Reference: US20240024302A1, “SOLUBLE EPOXIDE HYDROLASE (sEH) INHIBITORS AND DUAL COX/sEH INHIBITORS FOR THE TREATMENT OF ARRHYTHMOGENIC CARDIOMYOPATHY” (BETH ISRAEL DEACONESS MEDICAL CENTER, INC., priority 2020, published 2024)

What was measured:
[1] = Mouse PK, single oral gavage; conditions: single dose 0.3 mg/kg; for AUC: Mouse AUC; for half-life: Mouse T1/2, oral gavage; for Tmax: Mouse Tmax
[2] = Rat PK, single oral gavage; format: in vivo; conditions: single dose 0.1 mg/kg; for AUC / Rat AUC: PEG 300; for half-life: read-out: Rat T1/2 (converted)
[3] = mouse, in vivo, po, 0.3 mg/kg, oral gavage, 20% PEG400 in oleic acid-rich triglyceride
[4] = mouse, in vivo, po, 0.3 mg/kg, Mouse Cmax, oral gavage
[5] = mouse, in vivo, po, 0.3 mg/kg, oral gavage

| Compound | AUC [1, 3] | Cmax [1, 4] | half-life ([1]; mouse, in vivo, po, 0.3 mg/kg) | Tmax [1, 5] | Cmax ([2]; rat, in vivo) | Tmax ([2]; rat, in vivo) | AUC ([2]; rat, in vivo) | half-life ([2]; rat, in vivo) | Cmax [2] | Rat T1/2 [2] | Rat Tmax [2] | Rat AUC [2] | Mouse T1/2 ([1]; oral gavage) | Mouse AUC ([1]; oral gavage, 20% PEG400 in oleic acid-rich triglyceride) | Cmax ([1]; read-out: Mouse Cmax, oral gavage) |
| --- | --- | --- | --- | --- | --- | --- | --- | --- | --- | --- | --- | --- | --- | --- | --- |
| O=C(Nc1ccc(OC(F)(F)F)cc1)NC1CCN(C(=O)C2CCOCC2)CC1 | 5.06 µM·h | 460 nM | 2.8 h | 4.1 h | 23 ± 1 nM | 4.4 ± 0.2 h | 0.234 ± 0.019 µM·h | 3.7 ± 0.6 h |  |  |  |  |  |  |  |
| O=C(Nc1ccc(C(F)(F)F)c(F)c1)NC1CCN(C(=O)C2CCOCC2)CC1 | 0.0988 ± 0.0002 µM·h |  |  |  | 139 ± 9 nM | 4 ± 0.4 h | 1.65 ± 0.042 µM·h | 4.5 ± 0.4 h |  |  |  |  |  |  |  |
| O=C(O)CC1(CC(=O)N2CCC(NC(=O)Nc3ccc(C(F)(F)F)cc3)CC2)CCCCC1 | 11.6 µM·h | 590 nM | 5 h | 7.4 h |  |  |  |  |  |  |  |  |  |  |  |
| Cc1ccoc1C(=O)N1CCC(NC(=O)Nc2ccc(OC(F)(F)F)cc2)CC1 | 4.56 µM·h | 294 nM | 3.9 h | 5.7 h |  |  |  |  |  |  |  |  |  |  |  |
| O=C(Nc1ccc(C(F)(F)F)cc1)NC1CCN(C(=O)C2CCCOC2)CC1 (stereo not drawn) | 3.17 µM·h | 199 nM | 4.1 h | 5.9 h |  |  |  |  |  |  |  |  |  |  |  |
| CCC(=O)N1CCC(NC(=O)Nc2ccc(OC(F)(F)F)c(F)c2)CC1 | 20.6 µM·h | 978 nM | 5.4 h | 8 h |  |  |  |  | 196 ± 12 nM | 4.2 ± 0.8 h | 4.5 ± 0.5 h | 2.701 ± 0.357 µM·h |  |  |  |
| O=C(Nc1ccc(OC(F)(F)F)cc1)NC1CCN(C(=O)C2CCOC2)CC1 (stereo not drawn) | 12.6 µM·h | 703 nM | 4.6 h | 6.6 h |  |  |  |  |  |  |  |  |  |  |  |
| O=C(Nc1ccc(OC(F)(F)F)c(F)c1)NC1CCN(C(=O)C2CC2)CC1 | 5.59 µM·h | 282 nM | 5.1 h | 7.6 h |  |  |  |  | 95 ± 3 nM | 2.9 ± 0.3 h | 4.0 ± 0.1 h | 1.027 ± 0.065 µM·h |  |  |  |
| O=C(Nc1ccc(OC(F)(F)F)c(F)c1)NC1CCN(C(=O)C2CCOCC2)CC1 | 0.0985 ± 0.0001 µM·h |  |  |  | 103 ± 8 nM | 3.1 ± 0.2 h | 1.24 ± 0.063 µM·h | 6.2 ± 0.4 h |  |  |  |  |  |  |  |
| O=C(Nc1ccc(OC(F)(F)F)cc1)NC1CCN(C(=O)C2CCCOC2)CC1 (stereo not drawn) | 0.634 µM·h | 31 nM | 5.3 h | 7.6 h |  |  |  |  |  |  |  |  |  |  |  |
| Cc1occc1C(=O)N1CCC(NC(=O)Nc2ccc(OC(F)(F)F)cc2)CC1 | 9.99 µM·h | 409 nM | 6.2 h | 9 h | 133 ± 4 nM | 2.3 ± 0.4 h | 1.08 ± 0.089 µM·h | 6 ± 0.7 h |  |  |  |  |  |  |  |
| CC(C)C(=O)N1CCC(CC(=O)Nc2ccc(OC(F)(F)F)c(F)c2)CC1 |  |  |  |  | 17 ± 2 nM | 1.6 ± 0.1 h | 0.066 ± 0.011 µM·h | 1.2 ± 0.2 h |  |  |  |  |  |  |  |
| O=C(Nc1ccc(OC(F)(F)F)c(F)c1)NC1CCN(C(=O)C2CCCOC2)CC1 (stereo not drawn) | 0.0994 ± 0.0001 µM·h | 24700 nM | 1050 h | 6 h | 43 ± 3 nM | 2.6 ± 0.2 h | 0.328 ± 0.018 µM·h | 3.7 ± 0.5 h |  |  |  |  |  |  |  |
| CC[C@H](C)C(=O)N1CCC(CC(=O)Nc2ccc(OC(F)(F)F)c(F)c2)CC1 | 0.0995 ± 0.0001 µM·h |  |  |  | 3.6 ± 0.6 nM | 1.4 ± 0.1 h | 0.016 ± 0.001 µM·h | 0.9 ± 0.1 h |  |  |  |  |  |  |  |
| CC[C@H](C)C(=O)N1CCC(NC(=O)Nc2ccc(OC(F)(F)F)c(OC(F)(F)F)c2)CC1 | ≥ 0.0999 µM·h |  |  |  | 11 ± 1 nM | 2.5 ± 0.2 h | 0.075 ± 0.006 µM·h | 2.3 ± 0.4 h |  |  |  |  |  |  |  |
| O=C(Nc1ccc(OC(F)(F)F)cc1)NC1CCN(C(=O)C2=COCC2)CC1 | 0.67 µM·h | 58 nM | 2.9 h | 4.2 h |  |  |  |  |  |  |  |  |  |  |  |

| Compound | AUC [1, 3] | Cmax [1, 4] | half-life ([1]; mouse, in vivo, po, 0.3 mg/kg) | Tmax [1, 5] | Cmax ([2]; rat, in vivo) | Tmax ([2]; rat, in vivo) | AUC ([2]; rat, in vivo) | half-life ([2]; rat, in vivo) | Cmax [2] | Rat T1/2 [2] | Rat Tmax [2] | Rat AUC [2] | Mouse T1/2 ([1]; oral gavage) | Mouse AUC ([1]; oral gavage, 20% PEG400 in oleic acid-rich triglyceride) | Cmax ([1]; read-out: Mouse Cmax, oral gavage) |
| --- | --- | --- | --- | --- | --- | --- | --- | --- | --- | --- | --- | --- | --- | --- | --- |
| O=C(Nc1ccc(OC(F)(F)F)cc1)NC1CCN(C(=O)[C@@H]2CCOC2)CC1 | 0.656 µM·h | 50 nM | 3.4 h | 6.2 h |  |  |  |  |  |  |  |  |  |  |  |
| O=C(Nc1ccc(OC(F)(F)F)c(F)c1)NC1CCN(C(=O)N2CCOCC2)CC1 | 0.0982 ± 0.0001 µM·h |  |  |  | 40 ± 2 nM | 2.9 ± 0.3 h | 0.327 ± 0.032 µM·h | 3.6 ± 0.6 h |  |  |  |  |  |  |  |
| CC(C)C(=O)N1CCC(NC(=O)Nc2ccc(C(F)(F)F)c(F)c2)CC1 | 9.65 µM·h | 518 nM | 6.2 h | 7.9 h | 38 ± 3 nM | 1.8 ± 0.2 h | 0.212 ± 0.022 µM·h | 2.4 ± 0.3 h |  |  |  |  |  |  |  |
| O=C(Nc1ccc(OC(F)(F)F)c(F)c1)NC1CCN(C(=O)[C@@H]2CCOC2)CC1 | 0.0973 ± 0.0001 µM·h | 2550 nM | 174 h | 3.7 h | 84 ± 6 nM | 2.9 ± 0.3 h | 0.869 ± 0.127 µM·h | 3.8 ± 0.6 h |  |  |  |  |  |  |  |
| CCOC(=O)N1CCC(NC(=O)Nc2ccc(OC(F)(F)F)c(F)c2)CC1 | ≥ 0.0999 µM·h |  |  |  | 105 ± 16 nM | 3.7 ± 0.5 h | 1.33 ± 0.093 µM·h | 4.7 ± 0.8 h |  |  |  |  |  |  |  |
| O=C(Nc1ccc(OC(F)(F)F)cc1)NC1CCN(C(=O)c2ccoc2)CC1 | 2.93 µM·h | 146 nM | 5.1 h | 7.3 h |  |  |  |  |  |  |  |  |  |  |  |
| O=C(Nc1ccc(C(F)(F)F)cc1)NC1CCN(C(=O)C2CCOC2)CC1 (stereo not drawn) | 4.73 µM·h | 342 nM | 6.9 h | 6.8 h |  |  |  |  |  |  |  |  |  |  |  |
| CC(C)C(=O)N1CCC(NC(=O)Nc2ccc(OC(F)(F)F)c(F)c2)CC1 | 4.78 µM·h | 162 nM | 4.8 h | 5.9 h | 84 ± 5 nM | 2.8 ± 0.3 h | 0.637 ± 0.085 µM·h | 2.7 ± 0.4 h |  |  |  |  |  |  |  |
| O=C(Nc1ccc(C(F)(F)F)cc1)NC1CCN(C(=O)C2(C(F)(F)F)CC2)CC1 |  | 6490 nM | 356 h | 4.7 h |  |  |  |  |  |  |  |  |  |  |  |
| CCC(=O)N1CCC(NC(=O)Nc2ccc(OC(F)(F)F)cc2)CC1 [drawing 62] |  |  |  |  | 133 ± 4 nM | 2.3 ± 0.4 h | 1.08 ± 0.089 µM·h | 6 ± 0.7 h |  |  |  |  | 12.1 h | 10.65 µM·h | 495 nM |
| O=C(Nc1ccc(C(F)(F)F)cc1)NC1CCN(C(=O)c2ccoc2)CC1 | 0.794 µM·h | 28 nM | 4.2 h | 7.3 h | 308 ± 16 nM | 3.4 ± 0.3 h | 3.55 ± 0.271 µM·h | 4.4 ± 0.4 h |  |  |  |  |  |  |  |
| O=C(Nc1ccc(C(F)(F)F)cc1)NC1CCN(C(=O)[C@@H]2CCOC2)CC1 | 0.729 µM·h | 154 nM | 1.2 h | 1.7 h |  |  |  |  |  |  |  |  |  |  |  |
| O=C(Nc1ccc(C(F)(F)F)cc1)NC1CCN(C(=O)C2CCOCC2)CC1 | 5.26 µM·h | 376 nM | 3.6 h | 5.2 h | 54 ± 3 nM | 2.5 ± 0.2 h | 0.391 ± 0.031 µM·h | 3 ± 0.4 h |  |  |  |  |  |  |  |
| O=C(Nc1ccc(OC(F)(F)F)c(F)c1)NC1CCN(C(=O)C2(C(F)(F)F)CC2)CC1 | 0.0997 ± 0.0001 µM·h |  |  |  | 41 ± 3 nM | 4.3 ± 0.4 h | 0.486 ± 0.087 µM·h | 2.9 ± 0.3 h |  |  |  |  |  |  |  |
| O=C(Nc1ccc(C(F)(F)F)cc1)NC1CCN(C(=O)c2cc[nH]c2)CC1 | 0.083 µM·h | 11 nM | 2 h | 2.8 h |  |  |  |  |  |  |  |  |  |  |  |
| O=C(Nc1ccc(C(F)(F)F)cc1)NC1CCN(C(=O)C2=COCC2)CC1 | 0.875 µM·h | 78 nM | 2.8 h | 4.1 h |  |  |  |  |  |  |  |  |  |  |  |
